Test results from ChEMBL document CHEMBL1147182, “Clubbed thiazoles by MAOS: a novel approach to cyclin-dependent kinase 5/p25 inhibitors as a potential treatment for Alzheimer's disease” (Bioorg Med Chem, 2007).
pIC50: −log10 of the molar value.

Assays:
[1] = target: Cyclin-dependent kinase 5/CDK5 activator 1 (Homo sapiens, UniProt Q00535); experiment: Inhibition of human cdk5/p25 by SPA; assay type: protein-complex assay
[2] = Cytotoxicity against VeroC1008 cells at 6.25 to 50 ug/ml by neutral red uptake assay; assay type: cell-based; details: chlorocebus sabaeus, vero

Sequence of Cyclin-dependent kinase 5/CDK5 activator 1 (Q00535 whole entry): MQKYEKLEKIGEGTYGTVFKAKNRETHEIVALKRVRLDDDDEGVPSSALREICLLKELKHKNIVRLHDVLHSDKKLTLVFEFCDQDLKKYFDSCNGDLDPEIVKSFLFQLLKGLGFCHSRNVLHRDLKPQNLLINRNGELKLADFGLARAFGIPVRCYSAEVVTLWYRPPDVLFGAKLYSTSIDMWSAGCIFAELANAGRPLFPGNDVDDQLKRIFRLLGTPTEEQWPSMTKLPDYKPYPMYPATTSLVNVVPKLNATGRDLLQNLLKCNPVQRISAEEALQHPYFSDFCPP
Sequence of Cyclin-dependent kinase 5/CDK5 activator 1 (Q15078 whole entry, further chain): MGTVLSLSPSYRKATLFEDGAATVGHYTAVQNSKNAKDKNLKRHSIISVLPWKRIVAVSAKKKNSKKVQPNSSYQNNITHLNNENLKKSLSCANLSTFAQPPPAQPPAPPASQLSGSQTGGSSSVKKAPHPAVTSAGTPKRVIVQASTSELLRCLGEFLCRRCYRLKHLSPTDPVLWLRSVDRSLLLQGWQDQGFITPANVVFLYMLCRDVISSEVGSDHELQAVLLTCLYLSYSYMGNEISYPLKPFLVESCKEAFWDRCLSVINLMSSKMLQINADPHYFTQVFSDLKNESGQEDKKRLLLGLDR

SMILES | pIC50 [1] | Activity [2]
Nn1c(CSc2nnc(Cc3csc(NC(=O)CCl)n3)n2NC(=O)c2ccc(Cl)cc2)n[nH]c1=S | 5.49 | Non-toxic
COC(=O)CSc1nnc(Cc2csc(NC(=O)c3ccccc3)n2)n1NC(C)=O | 6.22 | Non-toxic
O=C(O)CCNc1nc(Cc2nnc(S)n2NC(=O)c2ccccc2)cs1 | 6.17 | Non-toxic
CC(=O)Nn1c(Cc2csc(NCCC(=O)O)n2)nnc1SCSc1nnc(Cc2csc(NCCC(=O)O)n2)n1NC(C)=O | 6.13 | Non-toxic
Nn1c(CSc2nnc(Cc3csc(NCCC(=O)O)n3)n2NC(=O)c2ccccc2)n[nH]c1=S | 5.32 | Non-toxic
O=C(CCl)Nc1nc(Cc2nnc(SCSc3nnc(Cc4csc(NC(=O)CCl)n4)n3NC(=O)c3ccc(Cl)cc3)n2NC(=O)c2ccc(Cl)cc2)cs1 | 6.47 | Non-toxic
O=C(CCl)Nc1nc(Cc2nnc(S)n2NC(=O)c2ccc(Cl)cc2)cs1 | 6.19 | Non-toxic
CC(=O)Nn1c(Cc2csc(NC(=O)CCl)n2)nnc1SCC(=O)N/N=C/c1ccccc1 | 6.27 | Non-toxic
CC(=O)Nc1nc(Cc2nnc(SCC(=O)NNC(=O)c3ccccc3)n2NC(C)=O)cs1 | 6.36 | Non-toxic
Nn1c(CSc2nnc(Cc3csc(NC(=O)c4ccccc4)n3)n2NC(=O)c2ccc(Cl)cc2)n[nH]c1=S | 5.50 | Non-toxic
CC(=O)Nn1c(Cc2csc(NC(=O)c3ccccc3)n2)nnc1SCC(=O)NNC(=O)CCl | 6.45 | Non-toxic
N#CCSc1nnc(Cc2csc(NC(=O)c3ccccc3)n2)n1NC(=O)c1ccccc1 | 6.30 | Non-toxic
O=C(O)CCNc1nc(Cc2nnc(SCC(=O)N/N=C/c3ccccc3)n2NC(=O)c2ccc(Cl)cc2)cs1 | 6.62 | Non-toxic
COC(=O)CSc1nnc(Cc2csc(NC(C)=O)n2)n1NC(=O)c1ccccc1 | 6.23 | Non-toxic
CC(=O)Nc1nc(Cc2n[nH]c(=S)n2NC(C)=O)cs1 | 6.22 | Non-toxic
CC(=O)Nc1nc(Cc2nnc(SCC#N)n2NC(=O)c2ccccc2)cs1 | 6.40 | Non-toxic
CC(=O)Nc1nc(Cc2nnc(SCc3n[nH]c(=S)n3N)n2NC(=O)c2ccc(Cl)cc2)cs1 | 5.13 | Non-toxic
Nn1c(CSc2nnc(Cc3csc(NC(=O)c4ccccc4)n3)n2NC(=O)c2ccccc2)n[nH]c1=S | 5.33 | Non-toxic
O=C(O)CCNc1nc(Cc2n[nH]c(=S)n2NC(=O)c2ccc(Cl)cc2)cs1 | 6.34 | Non-toxic
CC(=O)Nc1nc(Cc2n[nH]c(=S)n2NC(=O)c2ccccc2)cs1 | 6.24 | Non-toxic
O=C(Nc1nc(Cc2nnc(SCSc3nnc(Cc4csc(NC(=O)c5ccccc5)n4)n3NC(=O)c3ccc(Cl)cc3)n2NC(=O)c2ccc(Cl)cc2)cs1)c1ccccc1 | 6.19 | Non-toxic
O=C(Nc1nc(Cc2nnc(S)n2NC(=O)c2ccc(Cl)cc2)cs1)c1ccccc1 | 6.73 | Non-toxic
O=C(CCl)NNC(=O)CSc1nnc(Cc2csc(NC(=O)CCl)n2)n1NC(=O)c1ccccc1 | 6.28 | Non-toxic
CC(=O)Nn1c(Cc2csc(NC(=O)CCl)n2)nnc1SCC(=O)NNC(=O)c1ccccc1 | 6.44 | Non-toxic
CC(=O)Nn1c(Cc2csc(NCCC(=O)O)n2)nnc1SCC(=O)NNC(=O)c1ccccc1 | 6.32 | Non-toxic
O=C(CCl)Nc1nc(Cc2nnc(SCSc3nnc(Cc4csc(NC(=O)CCl)n4)n3NC(=O)c3ccccc3)n2NC(=O)c2ccccc2)cs1 | 6.17 | Non-toxic
CC(=O)Nc1nc(Cc2nnc(SCC(=O)NNC(=O)CCl)n2NC(=O)c2ccccc2)cs1 | 6.19 | Non-toxic
